This assay addresses T1, MALT1 (Homo sapiens, UniProt Q9UDY8).
T1 construct: Avi-tagged FL MALT-1 (Pharmaron, stored at −70° C.); Avi-tag
T1 sequence (Q9UDY8 1-824): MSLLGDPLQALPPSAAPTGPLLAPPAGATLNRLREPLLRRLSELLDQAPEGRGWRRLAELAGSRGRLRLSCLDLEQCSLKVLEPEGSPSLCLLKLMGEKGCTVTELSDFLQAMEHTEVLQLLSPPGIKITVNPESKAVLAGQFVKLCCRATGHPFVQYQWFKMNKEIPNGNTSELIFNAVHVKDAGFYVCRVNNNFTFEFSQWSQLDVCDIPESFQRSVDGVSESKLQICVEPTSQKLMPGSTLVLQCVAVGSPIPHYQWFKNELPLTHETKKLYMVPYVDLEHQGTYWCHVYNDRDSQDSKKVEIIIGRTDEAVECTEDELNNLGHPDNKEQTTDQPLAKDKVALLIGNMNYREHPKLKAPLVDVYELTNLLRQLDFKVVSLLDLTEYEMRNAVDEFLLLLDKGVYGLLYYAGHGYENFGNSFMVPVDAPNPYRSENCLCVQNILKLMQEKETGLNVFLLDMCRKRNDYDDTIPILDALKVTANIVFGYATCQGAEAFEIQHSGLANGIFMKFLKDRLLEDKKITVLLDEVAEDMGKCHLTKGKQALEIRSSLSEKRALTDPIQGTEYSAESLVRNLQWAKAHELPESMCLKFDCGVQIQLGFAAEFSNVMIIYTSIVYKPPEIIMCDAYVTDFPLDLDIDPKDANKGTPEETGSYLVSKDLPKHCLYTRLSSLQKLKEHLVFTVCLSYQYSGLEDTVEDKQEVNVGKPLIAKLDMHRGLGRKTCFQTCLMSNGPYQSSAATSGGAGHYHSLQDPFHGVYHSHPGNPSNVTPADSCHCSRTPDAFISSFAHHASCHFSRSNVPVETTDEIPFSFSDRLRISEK
Put plainly: MALT1 inhibition assay (MALT-1 Fluorogenic Peptide Cleavage Assay, Ac-LRSR-AMC substrate). It counts as biochemical. The following applies: Avi-tagged FL MALT-1, 30 min pre-incubation, 90 min reaction at room temperature, fluorescence intensity. Summed up:
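Full-length Avi-tagged MALT1 pre-incubated 30 min at room temperature with compounds (2% DMSO final) in HEPES pH 6.89, sodium citrate, TCEP, EDTA, CHAPS buffer. Ac-LRSR-AMC added from 50 µM (Km) or […] working stocks; 90 min at room temperature, AMC fluorescence (ex 342/em 441 nm); IC50 from % inhibition curves.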

Where only a bound is given, the exact number is not on record here.

With `Cn1nc(-c2cccc3c(=O)[nH]ccc23)c(C(F)(F)F)c1C(=O)Nc1cnc(-n2nccn2)c(C#N)c1` [Compound I-157], the IC50 is under 500 nM. In the case of `Cn1nc(OCc2ccccc2)c(C(F)(F)F)c1C(=O)Nc1ccnc(C(F)(F)F)c1` [Compound I-130], the IC50 was 500 to 2500 nM. Turning to `Cn1cc2cccc(-c3nn(C)c(C(=O)Nc4ccnc(C(F)(F)F)c4)c3C(F)(F)F)c2n1` [Compound I-5], the half-inhibitory concentration (IC50) lay within 2500 to 10000 nM. `[2H]C([2H])([2H])n1nc(-c2ccccc2)c(C(F)(F)F)c1C(=O)Nc1cnc(-n2nccn2)c(C#N)c1` [Compound I-167] showed an IC50 of under 500 nM.

For `Cn1nc(-c2cncc3ccccc23)c(C(F)(F)F)c1C(=O)Nc1ccnc(C(F)(F)F)c1` [Compound I-160], the IC50 fell in the range of 500 to 2500 nM. On to `Cn1nc(-c2cccc3nccn23)c(C(F)(F)F)c1C(=O)Nc1cnc(-n2nccn2)c(C(F)(F)F)c1` [Compound I-222], for which the IC50 was under 500 nM. Turning to `Cc1cc(NC(=O)c2c(C(F)(F)F)c(-c3ccccc3)nn2C)cc(C)n1` [Compound I-288], the half-inhibitory concentration (IC50) lay in the range of 2500 to 10000 nM. As for `Cn1nc(C(=O)Nc2cnc(-n3nccn3)c(Cl)c2)c(C(F)(F)F)c1-c1ccccc1` [Compound I-148], the figure is under 500 nM; as for `Cn1nc(-c2cccc3c2OC(F)(F)O3)c(C(F)(F)F)c1C(=O)Nc1cnc(-n2nccn2)c(Cl)c1` [Compound I-154], under 500 nM; as for `Cn1nc(C(=O)Nc2ccc(C(=O)N3CC(O)C3)c(Cl)c2)c(C(F)(F)F)c1-c1ccccc1` [Compound I-149], over 10000 nM. In turn, `Cn1nc(-c2ccnc3ccsc23)c(C(F)(F)F)c1C(=O)Nc1ccnc(C(F)(F)F)c1` [Compound I-66] had a half-maximal inhibitory concentration (IC50) of 500 to 2500 nM. The molecule `N#Cc1cc(NC(=O)c2c(C(F)(F)F)c(-c3ccccc3)nn2C2COC2)cnc1-n1nccn1` [Compound I-177] displayed an IC50 of 2500 to 10000 nM. `Cn1nc(-c2n[nH]c3ccncc23)c(C(F)(F)F)c1C(=O)Nc1ccnc(C(F)(F)F)c1` [Compound I-239] had a concentration for half-maximal inhibition (IC50) of over 10000 nM. Molecule `Cn1nc(-c2c(Cl)ccc3c2OCO3)c(C(F)(F)F)c1C(=O)Nc1ccnc(C(F)(F)F)c1` [Compound I-49] yielded a half-inhibitory concentration (IC50) of under 500 nM.

`COc1cccc(-c2nn(C)c(C(=O)Nc3ccnc(C(F)(F)F)c3)c2C(F)(F)F)c1OC` [Compound I-52] displayed a half-inhibitory concentration (IC50) of 500 to 2500 nM.

`Cn1nc(-c2cnc(CO)c3ccccc23)c(C(F)(F)F)c1C(=O)Nc1ccnc(C(F)(F)F)c1` [Compound I-194, 3-(1-(hydroxymethyl)isoquinolin-4-yl)-1-methyl-4-(trifluoromethyl)-N-(2-(trifluoromethyl)pyridin-4-yl)-1H-pyrazole-5-carboxamide] gave an IC50 of 2500 to 10000 nM. Molecule `Cn1nc(-c2nsc3ccccc23)c(C(F)(F)F)c1C(=O)Nc1ccnc(C(F)(F)F)c1` [Compound I-244] came in with an IC50 of 500 to 2500 nM.

Consider `Cn1nc(-c2cccc3scnc23)c(C(F)(F)F)c1C(=O)Nc1ccnc(C(F)(F)F)c1` [Compound I-96], for which the IC50 was under 500 nM. The molecule `Cn1nc(-c2cccn3ncnc23)c(C(F)(F)F)c1C(=O)Nc1ccnc(C(F)(F)F)c1` [Compound I-64] registered an IC50 of 500 to 2500 nM. Turning to `COCCn1nc(-c2ccccc2)c(C(F)(F)F)c1C(=O)Nc1cnc(-n2nccn2)c(Cl)c1` [Compound I-172], the half-inhibitory concentration (IC50) lay within 500 to 2500 nM.

With `Cn1nc(-c2cncc3ccsc23)c(C(F)(F)F)c1C(=O)Nc1ccnc(C(F)(F)F)c1` [Compound I-230], the IC50 was 500 to 2500 nM. `Cn1nc(-c2cccc3c(C#N)nccc23)c(C(F)(F)F)c1C(=O)Nc1ccnc(C(F)(F)F)c1` [Compound I-24] returned an IC50 of 500 to 2500 nM. `Cc1nc2cccc(-c3nn(C)c(C(=O)Nc4ccnc(C(F)(F)F)c4)c3C(F)(F)F)c2s1` [Compound I-226] came in with a half-maximal inhibitory concentration (IC50) of over 10000 nM. The molecule `Cn1nc(-c2cncc3cc[nH]c23)c(C(F)(F)F)c1C(=O)Nc1ccnc(C(F)(F)F)c1` [Compound I-115] came in with a concentration for half-maximal inhibition (IC50) of 2500 to 10000 nM. In the case of `Cn1nc2c(c1C(=O)Nc1ccnc(C(F)(F)F)c1)CCCc1ccccc1-2` [Compound I-252] it was 2500 to 10000 nM. As for `Cn1nc(-c2csc3ccncc23)c(C(F)(F)F)c1C(=O)Nc1ccnc(C(F)(F)F)c1` [Compound I-73], the figure is 500 to 2500 nM; as for `Cn1nc(-c2csc3cnccc23)c(C(F)(F)F)c1C(=O)Nc1ccnc(C(F)(F)F)c1` [Compound I-1, 1-methyl-3-(thieno[2,3-c]pyridin-3-yl)-4-(trifluoromethyl)-N-(2-(trifluoromethyl)pyridin-4-yl)-1H-pyrazole-5-carboxamide], under 500 nM; as for `Cn1nc(N2CCCc3ccccc32)c(C(F)(F)F)c1C(=O)Nc1ccnc(C(F)(F)F)c1` [Compound I-85, 3-(3,4-dihydroquinolin-1 (2H)-yl)-1-methyl-4-(trifluoromethyl)-N-(2-(trifluoromethyl)pyridin-4-yl)-1H-pyrazole-5-carboxamide], 500 to 2500 nM. In the case of `Cn1nc(-c2cccc3[nH]c(=O)ccc23)c(C(F)(F)F)c1C(=O)Nc1ccnc(C(F)(F)F)c1` [Compound I-249] it was 2500 to 10000 nM. `Cn1nc(-c2ccccc2)cc1C(=O)Nc1ccc(C(=O)N2CC(O)C2)c(Cl)c1` [Compound I-207] returned an IC50 of over 10000 nM.

Consider `Cn1nc(-c2cccc3ncn(C)c23)c(C(F)(F)F)c1NC(=O)c1ccnc(C(F)(F)F)c1` [Compound I-221, N-(1-methyl-3-(1-methyl-1H-benzo[d]imidazol-7-yl)-4-(trifluoromethyl)-1H-pyrazol-5-yl)-2-(trifluoromethyl)isonicotinamide], for which the IC50 was 2500 to 10000 nM.

With `Cn1nc(-c2cccc3c(=O)[nH]ncc23)c(C(F)(F)F)c1C(=O)Nc1ccnc(C(F)(F)F)c1` [Compound I-116], the IC50 is 500 to 2500 nM. As to `Cn1nc(-c2csc3c(=O)[nH]ccc23)c(C(F)(F)F)c1C(=O)Nc1ccnc(C(F)(F)F)c1` [Compound I-113], the half-maximal inhibitory concentration (IC50) is 500 to 2500 nM. As to `COCCn1nc(C(=O)Nc2cnc(-n3nccn3)c(Cl)c2)c(C(F)(F)F)c1-c1ccccc1` [Compound I-173], the concentration for half-maximal inhibition (IC50) was over 10000 nM.

Molecule `CN(C)CCn1nc(-c2ccccc2)c(C(F)(F)F)c1C(=O)Nc1cnc(-n2nccn2)c(C#N)c1` [Compound I-175] showed a half-maximal inhibitory concentration (IC50) of 2500 to 10000 nM. As for `Cn1nc(-c2cc(Cl)cc3nccn23)c(C(F)(F)F)c1C(=O)Nc1ccnc(C(F)(F)F)c1` [Compound I-245], the figure is 500 to 2500 nM; as for `Cn1nc(-c2cccc3ncnn23)c(C(F)(F)F)c1C(=O)Nc1ccnc(C(F)(F)F)c1` [Compound I-162, 3-([1,2,4]triazolo[1,5-a]pyridin-5-yl)-1-methyl-4-(trifluoromethyl)-N-(2-(trifluoromethyl)pyridin-4-yl)-1H-pyrazole-5-carboxamide], 500 to 2500 nM. The molecule `Cn1nc(-c2cccc3c2OCCO3)c(C(F)(F)F)c1C(=O)Nc1ccnc(C(F)(F)F)c1` [Compound I-44] had an IC50 of 500 to 2500 nM. As for `Cn1nc(C(=O)Nc2ccnc(C(F)(F)F)c2)c2c1-c1ccccc1CC2` [Compound I-260], the figure is 500 to 2500 nM; as for `Cn1nc(-c2cccc3nc(N)sc23)c(C(F)(F)F)c1C(=O)Nc1ccnc(C(F)(F)F)c1` [Compound I-117], 500 to 2500 nM. Turning to `Cn1nc(-c2n[nH]c3ncncc23)c(C(F)(F)F)c1C(=O)Nc1ccnc(C(F)(F)F)c1` [Compound I-231], the half-maximal inhibitory concentration (IC50) was over 10000 nM. `Cn1nc(-c2cccc3[nH]c(=O)sc23)c(C(F)(F)F)c1C(=O)Nc1ccnc(C(F)(F)F)c1` [Compound I-243]: the IC50 was 500 to 2500 nM.

For orientation: IC50 means the concentration that gives 50% inhibition. Read a low IC50 as higher potency.

The values are drawn from patent publication US20260085073A1, “PYRAZOLYLCARBOXAMIDE COMPOUNDS AND THEIR USE IN THERAPY” (Hotspot Therapeutics, Inc., priority 2022, published 2026).
